Patent US20120041030A1, “PYRIDINE THIO DERIVATIVE, AND PHARMACEUTICAL COMPOSITION WHICH CONTAINS SAME AND HAS ANTI-HELICOBACTER PYLORI ACTION” (priority 2009, published 2012)
Converted amounts (≈) assume the structure as drawn. Like-named read-outs stand apart in the source and are kept apart here.

What was measured:
Format in all cases: cell-based
[1] = tested on: Enterococcus faecalis (VRE, ATCC 51575); assay: Antibacterial test (MIC), comparison bacteria; details: Gram positive; for MIC: read-out: minimum inhibitory concentration (MIC)
Method: (§1) ATCC43504 which was a standard bacterial strain was used as Helicobacter pylori (H. pylori) to perform the test in vitro in a Columbia agar medium. The bacteria were cultured at 37° C. and a pH of 7.0 for three days. The minimum inhibitory concentration (MIC, μg/ml) was found on the fourth day. Each sample was dissolved in 1% DMSO to use. […] As bacteria for comparison, Gram negative bacteria, for example, E. coli (ATCC 10536 ATCC 25922), Klebsiella pneumonia (ATCC 10031), Proteus vulgaris (ATCC 13315), Pseudomonas aeruginosa (ATCC 9027) and Salmonella typhimurium (ATCC 13311) were used and Gram positive bacteria, for example, Staphylococcus aureus, MRSA (ATCC 33591), Staphylococcus epidermidis (ATCC 12228), Streptococcus pneumonia (ATCC 6301), Mycobacterium ranae (ATCC 110) and Enterococcus faecalis (VRE, ATCC 51575) were used.
(§2) The values in each table show minimum inhibitory concentrations (MIC, μg/ml).

[2] = tested on: Salmonella typhimurium (ATCC 13311); assay: Antibacterial test (MIC), comparison bacteria; details: Gram negative; for MIC: Salmonella enterica, read-out: minimum inhibitory concentration (MIC)
Method: as §1, §2

[3] = tested on: Streptococcus pneumonia (ATCC 6301); assay: Antibacterial test (MIC), comparison bacteria; details: for minimum inhibitory concentration (MIC): Gram positive; for MIC: Streptococcus pneumoniae, ATCC6301, Gram positive, read-out: minimum inhibitory concentration (MIC)
Method: as §1, §2

[4] = tested on: Staphylococcus aureus (MRSA, ATCC 33591); assay: Antibacterial test (MIC), comparison bacteria; details: Gram positive; for MIC: read-out: minimum inhibitory concentration (MIC)
Method: as §1, §2

[5] = tested on: Pseudomonas aeruginosa (ATCC 9027); assay: Antibacterial test (MIC), comparison bacteria; details: for minimum inhibitory concentration (MIC): Gram negative; for MIC: ATCC9027, Gram negative, read-out: minimum inhibitory concentration (MIC)
Method: as §1, §2

[6] = tested on: Helicobacter pylori (ATCC 43504); assay: Antibacterial test (MIC) against Helicobacter pylori; details: for minimum inhibitory concentration (MIC): Helicobacter pylori ATCC 43504; for MIC: Helicobacter pylori
Method: as §1, §2

[7] = tested on: Mycobacterium ranae (ATCC 110); assay: Antibacterial test (MIC), comparison bacteria; details: for minimum inhibitory concentration (MIC): Gram positive; for MIC: ATCC110, Gram positive, read-out: minimum inhibitory concentration (MIC)
Method: as §1, §2

[8] = tested on: Staphylococcus epidermidis (ATCC 12228); assay: Antibacterial test (MIC), comparison bacteria; details: for minimum inhibitory concentration (MIC): Gram positive; for MIC: ATCC12228, Gram positive, read-out: minimum inhibitory concentration (MIC)
Method: as §1, §2

[9] = tested on: Escherichia coli (ATCC 25922); assay: Antibacterial test (MIC), comparison bacteria; details: for minimum inhibitory concentration (MIC): Gram negative; for MIC: ATCC25922, Gram negative, read-out: minimum inhibitory concentration (MIC)
Method: as §1, §2

[10] = tested on: Proteus vulgaris (ATCC 13315); assay: Antibacterial test (MIC), comparison bacteria; details: for minimum inhibitory concentration (MIC): Gram negative; for MIC: ATCC13315, Gram negative, read-out: minimum inhibitory concentration (MIC)
Method: as §1, §2

[11] = tested on: Escherichia coli (ATCC 10536); assay: Antibacterial test (MIC), comparison bacteria; details: for minimum inhibitory concentration (MIC): Gram negative; for MIC: ATCC10536, Gram negative, read-out: minimum inhibitory concentration (MIC)
Method: as §1, §2

[12] = tested on: Klebsiella pneumonia (ATCC 10031); assay: Antibacterial test (MIC), comparison bacteria; details: for minimum inhibitory concentration (MIC): Gram negative; for MIC: Klebsiella pneumoniae, ATCC10031, Gram negative, read-out: minimum inhibitory concentration (MIC)
Method: as §1, §2

[13] = Columbia agar medium, 37° C., pH 7.0, cultured three days, MIC found on the fourth day
[14] = ATCC43504, 72 h, pH 7, Helicobacter pylori ATCC 43504, Columbia agar medium, 37° C., pH 7.0, cultured three days, MIC found on the fourth day, read-out: minimum inhibitory concentration (MIC)

| Compound | minimum inhibitory concentration (MIC) [1] | minimum inhibitory concentration (MIC) [2] | minimum inhibitory concentration (MIC) [3] | minimum inhibitory concentration (MIC) [4] | minimum inhibitory concentration (MIC) [5] | minimum inhibitory concentration (MIC) [6, 13] [µg/mL] | minimum inhibitory concentration (MIC) [7] | minimum inhibitory concentration (MIC) [8] | MIC [1] [µg/mL] | MIC [2] [µg/mL] | MIC [3] [µg/mL] | MIC [9] [µg/mL] | MIC [10] [µg/mL] | MIC [4] [µg/mL] | MIC [11] [µg/mL] | MIC [5] [µg/mL] | MIC [6, 14] [µg/mL] | MIC [7] [µg/mL] | MIC [8] [µg/mL] | MIC [12] [µg/mL] | further results |
| --- | --- | --- | --- | --- | --- | --- | --- | --- | --- | --- | --- | --- | --- | --- | --- | --- | --- | --- | --- | --- | --- |
| CC1(C)S[C@@H]2[C@H](NC(=O)[C@H](N)c3ccc(O)cc3)C(=O)N2[C@H]1C(=O)O [AMPC, Amoxicillin, reference compound] | 0.3 µg/mL (≈ 0.821 µM) | 0.3 µg/mL (≈ 0.821 µM) | 0.01 µg/mL (≈ 0.0274 µM) | 0.1 µg/mL (≈ 0.274 µM) | 100< μg/ml | 0.06 (≈ 0.164 µM) |  |  |  |  |  |  |  |  |  |  |  |  |  |  |  |
| CCCSc1ccnc(SCc2nc3ccccc3[nH]2)c1C.Cl [Example 6, 2-[[(4-thiopropyl-3-methyl-2-pyridyl)thio]-methyl]-1H-benzimidazole hydrochloride] | 100< μg/ml | 100< μg/ml | 100< μg/ml | 100< μg/ml | 100< μg/ml | 0.3 | 100< μg/ml | 100< μg/ml |  |  |  |  |  |  |  |  |  |  |  |  | minimum inhibitory concentration (MIC) [9]: 100< μg/ml; minimum inhibitory concentration (MIC) [10]: 100< μg/ml; minimum inhibitory concentration (MIC) [11]: 100< μg/ml; minimum inhibitory concentration (MIC) [12]: 100< μg/ml |
| CC[C@H]1OC(=O)[C@H](C)[C@@H](O[C@H]2C[C@@](C)(OC)[C@@H](O)[C@H](C)O2)[C@H](C)[C@@H](O[C@@H]2O[C@H](C)C[C@H](N(C)C)[C@H]2O)[C@](C)(OC)C[C@@H](C)C(=O)[C@H](C)[C@@H](O)[C@]1(C)O [CAM, Clarithromycin, reference compound] |  |  |  |  |  |  |  |  | 0.1 (≈ 0.134 µM) | 25 (≈ 33.4 µM) | 0.02 (≈ 0.0267 µM) | 50 (≈ 66.8 µM) | 100 (≈ 134 µM) | 0.1 (≈ 0.134 µM) | 50 (≈ 66.8 µM) | > 100 | 0.1 (≈ 0.134 µM) |  |  |  |  |
| Cc1c(OCCOCCOCC(F)(F)F)ccnc1SCc1nc2ccccc2[nH]1.Cl [Example 9] | 100< μg/ml | 100< μg/ml | 100< μg/ml | 100< μg/ml | 100< μg/ml | 0.3 | 100< μg/ml | 100< μg/ml |  |  |  |  |  |  |  |  |  |  |  |  | minimum inhibitory concentration (MIC) [9]: 100< μg/ml; minimum inhibitory concentration (MIC) [10]: 100< μg/ml; minimum inhibitory concentration (MIC) [11]: 100< μg/ml; minimum inhibitory concentration (MIC) [12]: 100< μg/ml |
| Cc1c(SCCCCCCCCO)ccnc1SCc1nc2ccccc2[nH]1 [Example 2, 2-[[[4-[(8-hydroxy-octyl)thio]-3-methyl-2-pyridyl]thio]methyl]-1H-benzimidazole] |  |  |  |  |  |  |  |  | > 100 | > 100 | > 100 | > 100 | > 100 | > 100 | > 100 | > 100 |  | > 100 | > 100 | > 100 | MIC ([6]; summary of Tables 2 and 3): 0.003 µg |
| COCCCCSc1ccnc(SCc2nc3ccccc3[nH]2)c1C.Cl [Example 1, 2-[[[4-[(4-methoxy-butyl]thio]-3-methyl-2-pyridyl]thio]methyl]-1H-benzimidazole hydrochloride] |  |  |  |  |  |  |  |  | > 100 | > 100 | > 100 | > 100 | > 100 | > 100 | > 100 | > 100 | ≤ 0.03 | > 100 | > 100 | > 100 |  |

Further lines, with some results ahead:

| minimum inhibitory concentration (MIC) [1] | minimum inhibitory concentration (MIC) [2] | minimum inhibitory concentration (MIC) [3] | minimum inhibitory concentration (MIC) [4] | minimum inhibitory concentration (MIC) [5] | minimum inhibitory concentration (MIC) [6, 13] [µg/mL] | minimum inhibitory concentration (MIC) [7] | minimum inhibitory concentration (MIC) [8] | MIC [1] [µg/mL] | MIC [2] [µg/mL] | MIC [3] [µg/mL] | MIC [9] [µg/mL] | MIC [10] [µg/mL] | MIC [4] [µg/mL] | MIC [11] [µg/mL] | MIC [5] [µg/mL] | MIC [6, 14] [µg/mL] | MIC [7] [µg/mL] | MIC [8] [µg/mL] | MIC [12] [µg/mL] | Compound | further results |
| --- | --- | --- | --- | --- | --- | --- | --- | --- | --- | --- | --- | --- | --- | --- | --- | --- | --- | --- | --- | --- | --- |
| 100< μg/ml | 100< μg/ml | 100< μg/ml | 100< μg/ml | 100< μg/ml | 3.0 | 100< μg/ml | 100< μg/ml |  |  |  |  |  |  |  |  |  |  |  |  | CSc1ccnc(SCc2nc3ccccc3[nH]2)c1C.Cl [Example 5, 2-[[(4-thiomethyl-3-methyl-2-pyridyl)thio]-methyl]-1H-benzimidazole hydrochloride] | minimum inhibitory concentration (MIC) [9]: 100< μg/ml; minimum inhibitory concentration (MIC) [10]: 100< μg/ml; minimum inhibitory concentration (MIC) [11]: 100< μg/ml; minimum inhibitory concentration (MIC) [12]: 100< μg/ml |
|  |  |  |  |  |  |  |  | > 100 | > 100 | > 100 | > 100 | > 100 | > 100 | > 100 | > 100 | 0.3 | > 100 | > 100 | > 100 | CCCOc1ccnc(SCc2nc3ccccc3[nH]2)c1C.Cl [Example 4, 2-[[(4-n-propoxy-3-methyl-2-pyridyl)thio]-methyl]-1H-benzimidazole hydrochloride] |  |
| 100< μg/ml | 100< μg/ml | 100< μg/ml | 100< μg/ml | 100< μg/ml | 0.3 (≈ 0.839 µM) | 100< μg/ml | 100< μg/ml |  |  |  |  |  |  |  |  |  |  |  |  | CCCCCSc1ccnc(SCc2nc3ccccc3[nH]2)c1C [Example 7, 2-[[(4-thiopentyl-3-methyl-2-pyridyl)thio]-methyl]-1H-benzimidazole] | minimum inhibitory concentration (MIC) [9]: 100< μg/ml; minimum inhibitory concentration (MIC) [10]: 100< μg/ml; minimum inhibitory concentration (MIC) [11]: 100< μg/ml; minimum inhibitory concentration (MIC) [12]: 100< μg/ml |
|  |  |  |  |  |  |  |  | > 100 | > 100 | > 100 | > 100 | > 100 | > 100 | > 100 | > 100 |  | > 100 | > 100 | > 100 | Cc1c(OCCCCCCCCO)ccnc1SCc1nc2ccccc2[nH]1 [Example 13, 2-[[[4-(8-hydroxy-1-octyloxy)-3-methyl-2-pyridyl]thio]-methyl]-1H-benzimidazole] | MIC ([6]; summary of Tables 2 and 3): 0.003 µg |
|  |  |  |  |  |  |  |  | > 100 | > 100 | > 100 | > 100 | > 100 | > 100 | > 100 | > 100 | 0.3 | > 100 | > 100 | > 100 | COCCOCCOc1ccnc(SCc2nc3ccccc3[nH]2)c1C.Cl [Example 12, 2-[[[4-[2-(2-methoxyethoxy)-ethoxy]-3-methyl-2-pyridyl]thio]-methyl]-1H-benzimidazole hydrochloride] |  |
|  |  |  |  |  |  |  |  | > 100 | > 100 | > 100 | > 100 | > 100 | > 100 | > 100 | > 100 | 0.1 (≈ 0.28 µM) | > 100 | > 100 | > 100 | CCOCCCOc1ccnc(SCc2nc3ccccc3[nH]2)c1C [Example 11] |  |
|  |  |  |  |  |  |  |  | > 100 | > 100 | > 100 | > 100 | > 100 | > 100 | > 100 | > 100 |  | > 100 | > 100 | > 100 | COCCCCCCCCOc1ccnc(SCc2nc3ccccc3[nH]2)c1C.Cl [Example 14, 2-[[[4-(8-methoxy-1-octyloxy]-3-methyl-2-pyridyl]thio]-methyl]-1H-benzimidazole hydrochloride] |  |
